# Test results reported in PMC11530689, “Anti colorectal cancer activity and in silico studies of novel pyridine nortopsentin analog as cyclin dependent kinase 6 inhibitor” (Scientific Reports, 2024).
# How the values were obtained:
# HCT-116 cells = test: MTT assay, IC50 determination; type: cell-based; conditions: Homo sapiens, colorectal cancer HCT-116 cells, 48 h
# Protocol: HCT-116 (colon cancer cell line) was obtained from the American Type Culture Collection (ATCC). The cancer cell line was grown in Dulbecco’s Modified Eagle’s Medium (DMEM) supplemented with 10% fetal bovine serum (FBS), penicillin/streptomycin (100 U/mL and 100 μg/mL, respectively) and 2 mM L-glutamine. The cells were maintained at 37 °C in 5% CO2.
# The cytotoxic activity of nortopsintin analogs (4a–4j) was determined by the national cancer institute (NCI, Bethesda, Maryland, USA) against 60 different cancer cell lines at a single concentration of (10^−5 M). For the determination of IC50 value, we used MTT assay kit (Sigma) according to the manufacturer’s protocol. HCT-116 cells were seeded into a 96-well plate at a concentration of 20,000 cells/well. After 24 h, the media was aspirated and replaced with serum-free media containing serial dilutions of the 4i compound. The cells were treated for 48 h in triplicates. […] The percentage of cytotoxicity was calculated using the following equation: % Cytotoxicity = [1 − (AVx/AVNC)] × 100.
# Where, AVx denotes the average absorbance of the sample and AVNC denotes the average absorbance of the negative control. The absorbance was measured at 570 nm with reference at 690 nm.
# CDK4 gene expression = test: Gene expression by quantitative real-time PCR, CDK4; type: cell-based, human; conditions: IC50 dose, 48 h, normalized to GAPDH, vs control
# Protocol: (§1) The cells were seeded in a six-well plate at a concentration of 3 × 10^5 cells/well. After a 24 h incubation, the IC50 dose of active compound 4i was applied to each well for 48 h. The cells were collected and centrifuged at 2500 rpm for 15 min at 4 °C. The total RNA isolation kit (RNeasy extraction kit—QIAGEN) was used to isolate RNA according to the manufacturer’s instructions.
# (§2) Gene expression analysis by quantitative real-time PCR. The levels of gene expression of CDK2, CDK4 and CDK6 were determined using iScript One-Step RT-PCR kit with SYBR Green (BIORAD) according to the manufacturer protocol. The sequences of the used primers are illustrated in Table 4. The genes expression was normalized to GAPDH as the housekeeping gene. The protocol used for cDNA synthesis was: 10 min at 50 °C, iScript Reverse transcriptase inactivation: 5 min at 95 °C and PCR cycling and detection (30 to 45 cycles): 10 s at 95 °C and 30 s at 55 °C to 60 °C.
# CDK6 gene expression = test: Gene expression by quantitative real-time PCR, CDK6; type: cell-based, human; conditions: IC50 dose, 48 h, normalized to GAPDH, vs control
# Protocol: as §1, §2
# CDK2 gene expression = test: Gene expression by quantitative real-time PCR, CDK2; type: cell-based, human; conditions: IC50 dose, 48 h, normalized to GAPDH, vs control
# Protocol: as §1, §2
smiles,measurement,setting,value
CN(C)c1ccc(-c2cc(-c3c[nH]c4ccccc34)nc(-c3c[nH]c4ccccc34)c2C#N)cc1 [4i],IC50,HCT-116 cells,0.0288 µM
same,Relative gene expression of CDK4,CDK4 gene expression,significantly suppress the expression
same,Relative gene expression of CDK6,CDK6 gene expression,significantly suppress the expression
same,Relative gene expression of CDK2,CDK2 gene expression,significantly suppress the expression
